These results are taken from patent US20260007717A1, “ANTIMICROBIAL PEPTIDE COMPOUNDS AND METHODS OF USE” (priority 2022, published 2026).

In series [1] the test system is pan-drug resistant (PDR) Acinetobacter baumannii YQ4. The series can be described thus: microbe, parasite or virus in culture.
Series [2] deals with A. baumannii YQ4. The series can be described thus: ROS detection with DCFH-DA probe. The format is cell-based, Acinetobacter baumannii.
The test system of series [3] is A. baumannii ATCC19606 and LPS-modified strains pmrAP102R and pmrAP102RmiaAI221V. Briefly: MIC on wild-type and LPS-modified strains. The format is cell-based, Acinetobacter baumannii. Particulars: LB broth.
Description: MIC was determined against A. baumannii wild-type strain ATCC19606 and the corresponding LPS-defective mutants with pmrAP102R and pmrAP102RmiaAI221V mutation in LB broth.
Series [4] concerns A. baumannii YQ4. Briefly: Nematode killing assay (infection model). The settings on record: NGM plate; 16 μg/ml COG1410 alone or 2 μg/ml COG1410 plus 1 μg/ml polymyxin B.
The subject of series [5] is A. baumanii YQ4. Briefly: Induction of resistance through serial passage. Particulars: after 55 passages at sub-MIC.
Description: The initial concentration of the tested compounds was set up as 1/32×MIC and doubled every 10 passages. The 1 ml of bacterial culture was stored in 10% sterile glycerol at −80° C. every 5 passages. The MIC value of collected cultures and original strains were measured through the micro-dilution method.
In series [6] the test system is A. baumannii. The series can be described thus: Bactericidal efficacy in PBS, LB broth and saline. The format is cell-based, Acinetobacter baumannii. The settings on record: 1×MIC, 2 h.
Series [7] deals with P. gingivalis. The format is cell-based. Particulars: anaerobic BHI broth. How it is done: Briefly, P. gingivalis is grown under anaerobic conditions to mid-log phase as per Dominy et al. […] The microtiter plate method outlined by Jansen (ibid) was used to measure MICs. Compounds and bacteria are added to wells of a microtiter plate and grown anaerobically (P. gingivalis) or with CO2 (L. salivarius) for 24 to 72 hours. Growth is measured with light scattering at 592 nm on a plate reader and absorbance plotted against μg/ml of drug in each well.

Series [8] in a line: Stability in 100% human plasma (inhibition zone on A. baumannii YQ4). The class given is in vitro ADME.
Series [9] has as its system A. baumannii YQ4. Briefly: ATP leakage assay. The format is cell-based, Acinetobacter baumannii. The settings on record: 1×MIC, 30 min.
Description: ATP leakage assay was performed using the Enhanced ATP Assay Kit of Beyotime (S0027) according to the manufacturer's manual. Briefly, the log-phase culture of A. baumannii YQ4 was prepared, washed and suspended in PBS as above. This suspension was exposed to 16 μg/ml COG1410, 16 μg/ml polymyxin B and 32 μg/ml tigecycline, respectively and incubated at 37° C. for 30 min. The supernatant was harvested and used for measurement of ATP levels. 100 μl of supernatant was mixed with 100 μl working solution and the chemiluminescence was measured by Biotek Synergy H1 plate reader. Untreated sample was set as negative control. The experiments were performed in triplicate.
In series [10] the test system is pan-drug resistant (PDR) Acinetobacter baumannii YQ4.
Series [11] relates to normal human hepatic L02 cells. The series can be described thus: Cytotoxicity, CCK8 assay. The settings on record: 24 h.
Description: The cytotoxicity of COG1410 on normal liver cell L02 was assessed by Cell Counting Kit 8 (Solarbio, CA1210) according to the manufacturer's manual. Briefly, 100 μl human hepatic L02 cells were seeded in the 96-well plate with 4×10^3 cells per well in RPMI-1640 medium containing 20% FBS, and incubated at 37° C. in a 5% CO2 atmosphere for 24 h. The cells without exposure to peptide were used as negative control. Then, the L02 cells were incubated with different concentrations of COG1410 for another 24 h. 10 μl CCK8 solution was added to each well. After 2 h incubation, the optical absorbance at 450 nm was measured with BioTek synergy H1 plate reader. […] The experiments were done in triplicate.
For series [12], the system named is A. baumannii YQ4. Briefly: Bactericidal efficacy (LC99.9) in PBS with or without 50% human plasma. The class given is cell-based, Acinetobacter baumannii. The settings on record: 2 h, listed as COG1410. How it is done: Antibacterial activity in plasma of COG1410 was performed as described previously. […] After incubation with shaking at 200 rpm at 37° C. for 2 hours, the CFUs were counted on LB agar. LC99.9 indicates the lowest peptide concentration that kills ≥99.9% bacteria (ie. a 1000 fold reduction). The experiments were conducted independently for three times.

The test system of series [13] is human erythrocytes.
Description: The anti-coagulated (citrate) whole blood was pelleted by centrifugation at 700 g for 8 min, washed three times with PBS, and suspended to 0.5% (vol/vol) in PBS. […] The highest concentration was 512 μg/ml (363 μM). PBS and Triton X-100 (0.1%) were used as negative and positive controls, respectively. The plate was incubated at 37° C. for 1 h, followed by centrifuge at 1,000 rpm for 5 min at 4° C. 60 μl aliquots of the supernatant from each well were quickly transferred to a new flat-bottom 96-well plate. The optical absorbance at OD414 was measured with a microplate reader (BioTek, synergy H1). The hemolysis percentage was then normalized with respect to the averaged negative (0%) and positive (100%) controls. Three independent experiments were conducted.
The test system of series [14] is A. baumannii YQ4 biofilm. Briefly: Static biofilm inhibition, crystal violet. The format is cell-based, Acinetobacter baumannii.
Description: 200 μl culture was seeded in each cell of the 96-well PVC plate with OD600 0.01 (ca. 1×10^6 CFU/ml), which was exposed to different COG1410 solution with the final concentrations ranging from 0.5 to 128 μg/ml. Each concentration was determined in 8 wells. After incubation 37° C. for 48 h, the planktonic bacteria were removed by washing three times with sterilized water, followed by fixing in methanol for 15 min and staining with 0.1% crystal violet (CV) for 15 min. Excess CV was washed off and the bound CV was eluted from the biofilm into 150 μl of 95% ethanol and quantitated spectrophotometrically at 600 nm using a Biotek Synergy H1 plate reader. The experiments were performed in triplicate.
The subject of series [15] is PDR A. baumannii YQ4. Briefly: Dynamic time-kill assay in PBS.
Description: For dynamic time-kill assay, the overnight culture of A. baumannii YQ4 was transferred to fresh broth with initial OD600 0.01 and grown to the logarithmic phase. 1 ml culture was harvested, washed twice with 1× phosphate-buffered saline (PBS, pH7.4), containing 8 mM NaH2PO4, 2 mM KH2PO4, 2.6 mM KCl, 136 mM NaCl), and finally suspended in 1 ml PBS with OD600 0.5, which approximately corresponds to 1×10^8 CFU/ml. […] 100 μl aliquot was respectively taken at 0, 5, 10 and 30 min, serially diluted in PBS and plated on LB agar. The CFUs were counted after incubation at 37° C. for 18 h. […] Three independent experiments were performed.
Series [16] deals with A. baumannii YQ4. As for the experimental part: The checkerboard method was performed to determine the fractional inhibitory concentration (FIC) index between COG1410 and other antimicrobials. Two-fold serial dilutions of antimicrobials and COG1410 were conducted and mixed in the 96-well plate. […] The experiments were conducted twice independently.
For series [17], the system named is Streptococcus pneumoniae, methicillin-sensitive Staphylococcus aureus, MRSA, Klebsiella pneumoniae and Pseudomonas aeruginosa. The class given is cell-based.
For series [18], the system named is A. baumannii YQ4 preformed biofilm. The series can be described thus: Biofilm eradication assay, crystal violet. The class given is cell-based, Acinetobacter baumannii. Particulars: 24 h.
Description: Biofilm eradication assay was performed as described previously [24]. A. baumannii YQ4 culture at log phase was diluted into fresh LB broth to OD600 0.01 and 200 μl per well dispensed into a 96-well PVC plate. Plates were incubated at 37° C. for 48 h and washed with PBS for three times. Serial dilutions of COG1410 (0.5-128 μg/mL) were prepared using the same media and were dispensed with 200 μl into each well. Each concentration was determined in 8 wells. LB without COG1410 was used as untreated control. After incubation for another 24 h, the remaining biofilm was quantified as described above. The experiments were performed in triplicate.
For series [19] the following is noted: single intravenous injection; cited from earlier work.

Converted amounts (≈) assume the structure as drawn. “And” between values parts separate entries of the source, which are not always exact repeats. Equal values may be shown once. Read-outs that look alike come from different tables or passages of the source. Non-standard residues stand in square brackets, D forms with d. Residues, ends and D or L forms follow the SMILES beside them. Aib = CC(C)(N)C(=O)O

With `CN(C)c1cc(NC(=O)CNC(C)(C)C)c(O)c2c1C[C@H]1C[C@H]3[C@H](N(C)C)C(O)=C(C(N)=O)C(=O)[C@@]3(O)C(O)=C1C2=O` [tigecycline], the MIC in series [1] is 32 µg/mL (≈ 54.6 µM).

Turning to `CC(=O)N[C@@H](C)C(=O)N[C@@H](CO)C(=O)NC(C)(C)C(=O)N[C@@H](CC(C)C)C(=O)N[C@@H](CCCNC(=N)N)C(=O)N[C@@H](CCCCN)C(=O)N[C@@H](CC(C)C)C(=O)NC(C)(C)C(=O)N[C@@H](CCCCN)C(=O)N[C@@H](CCCNC(=N)N)C(=O)N[C@@H](CC(C)C)C(=O)N[C@@H](CC(C)C)C(N)=O` [SEQ ID NO: 1, acetyl-AS-aib-LRKL-aib-KRLL-amide] (Ac-AS[Aib]LRKL[Aib]KRLL-NH2), the ROS production result in series [2] (16 μg/ml) is recorded as “significantly increased ROS production”. Besides, in series [2] (treatment for 20 min), the “more ROS detected after treatment” value amounted to 30%. In addition, the “effect of lipidA modification of LPS on antimicrobial efficacy” value in series [3] was “did not change the antimicrobial efficacy”. For the same compound, in [4], the “survival of pre-infected nematodes” value is on record as “alleviated the death of infected nematodes, but the change was not statistically significantly”. The “increase of MIC” value in series [5] came to 4 fold. Moreover, the bactericidal efficacy result in series [6] was “near elimination”. The “MIC P. gingivalis” value in series [7] was 16 to 64 µg/mL. Also, the inhibition diameters entry in series [8] (37° C., first 2 h) was “did not significantly change”. This compound gave an activity reduced in [8] (4 h) of 6.8%. Also, in [8] (10 h), the activity lost was 20%. For the same compound, in series [8] (after 10 h), the activity retained result is “more than 80%”. Also, in [9], the ATP leakage result is “significantly more than untreated controls and the tigecycline treatment group”. Further, the MIC worked out at 11.3 µM in [10] (A. baumannii YQ4) and 16 µg/mL in series [10] (A. baumannii YQ4, LB broth). Also, the “minimal bactericidal concentration (MBC)” value in [10] (A. baumannii YQ4, listed as COG1410) is 16 μg/ml and 11.3 μM. In series [11], the “half-maximal (EC50) toxicity concentration” value was 58.9 µg/mL. In addition, the LC99.9 in series [12] (PBS with 50% human plasma) is 8 μg/ml and 5.6 μM; in series [12] (PBS) it was 2 μg/ml and 1.4 μM. For the same compound, the “EC50 (half of the red blood cells lysed)” value in series [13] (1 h) stood at 441 µg/mL. In addition, the hemolysis result in [13] (red cells of human, 128 μg/ml) is on record as “less than 5%”. The biofilm formation entry in [14] (0.5×MIC, 48 h) is listed as “significantly reduced biofilm formation”. The “biofilm mass reduced, compared with untreated controls” value in series [14] (1×MIC) turned out to be 55%. The “reduction in CFU” value in series [15] (1×MIC, 30 min) came to 6 log. The “decrease of CFU” value in series [15] (1×MIC, within 5 min) is on record as ~3 logs. The “killing of inoculum (1×10^8 CFU/ml)” value in series [15] (5×MIC, within 5 min) is listed as “completely eliminated”. For the same compound, in series [16] (COG1410 combined with polymyxin B), the “working concentration in the combination” value stood at 2 µg/mL. The FIC in series [16] (in combination with Ceftazidime) was 0.31; in series [16] (in combination with polymyxin B) it was 0.13; in series [16] (in combination with tetracycline) it was 0.31. The antimicrobial activity result in [17] is “inactive”. In series [18] (1×MIC), the mature biofilm dispersed result is reported as “ca. 46%”. For the same compound, the biofilm eradicated entry in series [18] (4×MIC) is “more than 88%”. Further, in [19], the functional outcome was “significantly improved vestibulomotor function and spatial learning and memory”.
